Compound in one assay: COc1cc(CCc2cc(NC(=O)c3ccc(N4CC(C)NC(C)C4)cc3)n[nH]2)cc(OC)c1 [AZD4547]
Kind of assay: surviving fraction relative to DMSO-only wells; higher = less growth inhibition. The following applies: exposure time: 5 days. The method, boiled down: (§1)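 Tumour cell lines were seeded in log phase at 250–500 cells per well into 384-well plates. Starting 24 hours later, inhibitors were present continuously for five days at 0.5, 1, 5, 10, 50, 100, 500 and 1000 nM. Surviving fraction, from CellTiter-Glo luminescence, is normalised to the median of DMSO-only wells. Three screens per line were required, with replicate Pearson r >0.7 and median Z' >0.3 for a line to be kept.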

Compound in a further assay: CN(Cc1cnc2nc(N)nc(N)c2n1)c1ccc(C(=O)N[C@@H](CCC(=O)O)C(=O)O)cc1 [METHOTREXATE]
Described as above. The following applies: exposure time: 5 days. The method, boiled down: as §1

± gives the standard deviation of the averaged measurements.

Regarding HSSYII SYNOVIAL, the surviving fraction in the assay with AZD4547 (0.5 nM) came out at 0.872 ± 0.069; with AZD4547 (1 nM), 0.813 ± 0.031; in the assay with AZD4547 (5 nM), 0.606 ± 0.04; in the assay with AZD4547 (10 nM), 0.434 ± 0.0065; with AZD4547 (50 nM), 0.295 ± 0.015; in the assay with AZD4547 (100 nM) it was 0.302 ± 0.0015. Moreover, the surviving fraction came to 0.259 ± 0.0075 with AZD4547 (500 nM); 0.24 ± 0.013 in the assay with AZD4547 (1000 nM); 0.995 ± 0.049 with METHOTREXATE (0.5 nM); 0.996 ± 0.048 with METHOTREXATE (1 nM); 1 ± 0.051 in the assay with METHOTREXATE (5 nM); 0.969 ± 0.029 in the assay with METHOTREXATE (10 nM). Moreover, the surviving fraction with METHOTREXATE (50 nM) is 0.822 ± 0.035; with METHOTREXATE (100 nM) it was 0.834 ± 0.081; in the assay with METHOTREXATE (500 nM), 0.755 ± 0.045; in the assay with METHOTREXATE (1000 nM), 0.78 ± 0.043.
HT1080 SOFT TISSUE: the surviving fraction with AZD4547 (0.5 nM) came to 1.04 ± 0.048; with AZD4547 (1 nM), 1.03 ± 0.025; in the assay with AZD4547 (5 nM) it was 1.01 ± 0.031; with AZD4547 (10 nM), 1 ± 0.0068; with AZD4547 (50 nM), 0.979 ± 0.016; with AZD4547 (100 nM) it was 0.9753 ± 0.0087. Also, the surviving fraction came to 0.936 ± 0.03 with AZD4547 (500 nM); 0.817 ± 0.065 with AZD4547 (1000 nM); 1.04 ± 0.021 in the assay with METHOTREXATE (0.5 nM); 1.06 ± 0.029 in the assay with METHOTREXATE (1 nM); 1.02 ± 0.04 with METHOTREXATE (5 nM); 0.493 ± 0.043 with METHOTREXATE (10 nM). Moreover, the surviving fraction came to 0.253 ± 0.023 with METHOTREXATE (50 nM), 0.257 ± 0.0082 with METHOTREXATE (100 nM), 0.259 ± 0.0081 in the assay with METHOTREXATE (500 nM) and 0.265 ± 0.03 in the assay with METHOTREXATE (1000 nM).
As for HU09 BONE, the surviving fraction with AZD4547 (0.5 nM) came to 0.983 ± 0.077; with AZD4547 (1 nM) it was 0.982 ± 0.16; with AZD4547 (5 nM), 1.03 ± 0.089; with AZD4547 (10 nM) it was 1.07 ± 0.061; with AZD4547 (50 nM) it was 0.797 ± 0.066; with AZD4547 (100 nM), 0.856 ± 0.026. Also, the surviving fraction in the assay with AZD4547 (500 nM) amounted to 0.624 ± 0.062; with AZD4547 (1000 nM) it was 0.419 ± 0.031; with METHOTREXATE (0.5 nM) it was 1.07 ± 0.17; in the assay with METHOTREXATE (1 nM), 1 ± 0.055; with METHOTREXATE (5 nM) it was 1.15 ± 0.085; in the assay with METHOTREXATE (10 nM), 1.06 ± 0.059. The surviving fraction was 0.589 ± 0.031 with METHOTREXATE (50 nM), 0.459 ± 0.051 with METHOTREXATE (100 nM), 0.335 ± 0.018 with METHOTREXATE (500 nM) and 0.337 ± 0.043 with METHOTREXATE (1000 nM).
JIMT1 BREAST: the surviving fraction in the assay with AZD4547 (0.5 nM) was 0.99 ± 0.016; with AZD4547 (1 nM), 1.03 ± 0.04; with AZD4547 (5 nM) it was 1.018 ± 0.0059; in the assay with AZD4547 (10 nM), 1.02 ± 0.0097; with AZD4547 (50 nM), 1.032 ± 0.0075; with AZD4547 (100 nM), 1.07 ± 0.032. Besides, the surviving fraction with AZD4547 (500 nM) amounted to 1.05 ± 0.02; with AZD4547 (1000 nM), 1.06 ± 0.03; in the assay with METHOTREXATE (0.5 nM), 1.02 ± 0.053; with METHOTREXATE (1 nM) it was 0.999 ± 0.026; with METHOTREXATE (5 nM), 0.579 ± 0.035; in the assay with METHOTREXATE (10 nM), 0.533 ± 0.044. For the same test system, the surviving fraction was found to be 0.305 ± 0.028 with METHOTREXATE (50 nM), 0.286 ± 0.029 with METHOTREXATE (100 nM), 0.285 ± 0.042 in the assay with METHOTREXATE (500 nM) and 0.295 ± 0.017 in the assay with METHOTREXATE (1000 nM).
With “JURKAT HAEMATOPOIETIC AND LYMPHOID TISSUE”, the surviving fraction amounted to 1 ± 0.027 in the assay with AZD4547 (0.5 nM); 1.06 ± 0.036 with AZD4547 (1 nM); 1.01 ± 0.026 with AZD4547 (5 nM); 1.04 ± 0.021 with AZD4547 (10 nM); 0.967 ± 0.034 in the assay with AZD4547 (50 nM); 0.951 ± 0.033 in the assay with AZD4547 (100 nM). The surviving fraction with AZD4547 (500 nM) was 1.04 ± 0.018; with AZD4547 (1000 nM), 1 ± 0.035; in the assay with METHOTREXATE (0.5 nM), 1.02 ± 0.012; with METHOTREXATE (1 nM), 1.02 ± 0.035; with METHOTREXATE (5 nM) it was 1.02 ± 0.03; with METHOTREXATE (10 nM), 0.404 ± 0.012. Besides, the surviving fraction with METHOTREXATE (50 nM) turned out to be 0.036 ± 0.001; with METHOTREXATE (100 nM), 0.0293 ± 0.0015; in the assay with METHOTREXATE (500 nM) it was 0.0293 ± 0.00058; with METHOTREXATE (1000 nM), 0.031.

Values taken from the supplement of paper PMC6045584.
